In US5298522A, “6-chloro-5-fluoro-3-(2-thenoyl)-2-oxindole-1-carboxamide as an analgesic and anti-inflammatory agent while maintaining a normal urine protein/creatinine ratio” (Pfizer Inc., priority 1993, dated 1994):

Experiments:
[1] = Proteinuria in patients; format: in vivo, human; conditions: for induction of proteinuria: in some patients, dose not stated
[2] = Double blind placebo-controlled study, urine protein/creatinine ratio (Example 1); format: in vivo, human
Protocol: (§1) "Significant increase or decrease" for proteinuria effects is herein defined as an increase or decrease having statistical significance as determined by conducting an analysis of variance (ANOVA). First, a regression line is fitted to protein/creatinine (PC) ratio data for each patient and treatment period, and a slope is determined. The slope is then analyzed using an ANOVA to test for sequence, period and treatment effects, to determine if a difference exists between the control and treated groups.
(§2) Large amounts of creatinine and much smaller amounts of protein are normally excreted in the urine of normal human subjects, and a protein/creatinine ratio of approximately 0.05 to 0.1 is usually maintained.
Using a double blind placebo-controlled design, 6-chloro-5-fluoro-3-(2-thenoyl)-2-oxindole-1-carboxamide was administered to 36 patients at dose levels of 40, 80, 160 and 320 mg, once daily. A single dose was given on day 1, followed by a seven day washout period, and then dosing was continued for a further 21 days. […] In addition, following the 2nd, 8th and 22nd dose; and 240 hours after the last dose, one 20 ml aliquot of urine, following the first am void but prior to the administration of study medication, was withdrawn for measurement of quantitative protein and creatinine.

[3] = system: carrageenin-induced rat-foot edema; assay: Carrageenin-induced rat-foot edema test; format: in vivo, rats (adult, male, albino); conditions: by gavage, one hour before carrageenin
Text: [Winter et al., Proc. Soc. Exp. Biol. Med., 111, 544, (1963)].
Unanesthetized, adult, male, albino rats of 150 g to 190 g body weight are numbered, weighed, and an ink mark placed on the right lateral malleolus. Each paw is immersed in mercury exactly to the ink mark. The mercury is contained in a glass cylinder, connected to a Statham Pressure Transducer. The output from the transducer is fed through a control unit to a microvoltameter. The volume of mercury displaced by the immersed paw is read. The drug is given by gavage. One hour after drug administration, edema is induced by injection of 0.05 ml of 1% solution of carrageenin into the plantar tissue of the marked paws. Immediately thereafter, the volume of the injected foot is measured. The increase in foot volume 3 hours after the injection of carrageenin constitutes the individual inflammatory response.

[4] = Double blind, placebo controlled, crossover study, urine protein/creatinine ratio (Example 2); format: in vivo, human; conditions: 80 mg/day, four weeks
Protocol: as §1, §2
Using a double blind, placebo controlled, crossover design, 6-chloro-5-fluoro-3-(2-thenoyl)-2-oxindole-1-carboxamide was administered to 25 patients at a dose level of 80 mg/day. Patients were randomized to receive either 6-chloro-5-fluoro-3-(2-thenoyl)-2-oxindole-1-carboxamide for four weeks followed by placebo for four weeks, or to receive placebo for four weeks followed by 6-chloro-5-fluoro-3-(2-thenoyl)-2-oxindole-1-carboxamide for four weeks. Patients could switch to the second leg of the treatment regimen earlier if symptoms became intolerable. […] Urine protein/creatinine ratio was determined at baseline and weekly during the study. […]

[5] = system: PBQ-induced abdominal stretching in mice; assay: Blockage of abdominal stretching induced by 2-phenyl-1,4-benzoquinone (PBQ); format: in vivo, mice (Carworth males, albino CF-1 strain); conditions: oral, one hour before PBQ 2 mg/kg intraperitoneally
Protocol: The method is based on that of Siegmund et al., Proc. Soc. Exp. Biol. Med., 95, 729-731, (1957), as adapted for high throughput [see further Milne and Twomey, Agents and Actions, 10, 31-37, (1980)]. The mice used in these experiments are Carworth males, albino CF-1 strain, weighing 18-20 g. All mice are fasted overnight prior to drug administration and testing.
6-Chloro-5-fluoro-3-(2-thenoyl)-2-oxindole-1-carboxamide is dissolved or suspended in a vehicle consisting of ethanol (5%), emulphor 620 (a mixture of polyoxyethylene fatty acid esters, 5%) and saline (90%). This vehicle also served as control. Doses are on a logarithmic scale (i.e., . . . 0.32, 1.0, 3.2, […] . . . mg/kg), and are calculated from weights of the salt when applicable. The route of administration is oral, with concentrations varied to allow a constant dosage of 10 ml/kg of mouse. The aforesaid method of Milne and Towney is used to determine efficacy and potency. […] Individual mice are then immediately placed in a warmed lucite chamber, and, starting five minutes after PBQ administration, the number of abdominal constrictions during the subsequent 5 minutes are recorded. The degree of analgesic protection, Maximal Possible Effect (% MPE), is calculated on the basis of suppression of abdominal constriction relative to counts from concurrent control animals run on the same day. […]

## NC(=O)N1C(=O)C(C(=O)c2cccs2)c2cc(Cl)ccc21 (stereo not shown) [5-chloro-3-(2-thenoyl)-2-oxindole-1-carboxamide]
[1]; 80 mg/day, within four weeks
  patients with proteinuria: 10-15%
[1]; 80 mg/day, upon discontinuation of medication
  course of proteinuria: non-progressive and reversible upon discontinuation of medication
[1]
  induction of proteinuria: induce non-progressive, reversible proteinuria in some patients

## NC(=O)N1C(=O)C(C(=O)c2cccs2)c2cc(F)c(Cl)cc21 (stereo not shown) [6-Chloro-5-fluoro-3-(2-thenoyl)-2-oxindole-1-carboxamide]
[2]; 320 mg/day
  proteinuria: does not cause proteinuria
[2]; 40, 80, 160 and 320 mg once daily, single dose, seven day washout, then further 21 days
  urine protein/creatinine ratio, drug treated groups vs placebo treated groups: no significant differences
[3]
  anti-inflammatory activity: possesses anti-inflammatory activity
[1]
  induction of proteinuria: does not induce proteinuria
[4]
  change in urine protein/creatinine ratio during treatment: No significant changes
[4]; crossover
  urine protein/creatinine ratio, drug vs placebo treatment: no significant differences
[5]
  analgesic activity: possess analgesic activity
